From patent US6586413B2, “Methods and compositions for reducing ischemic injury of the heart by administering adenosine receptor agonists and antagonists” (The United States of America as represented by the …, priority 1999, dated 2003)

Tests used:
Assay type in all cases: cell-based
[1] = tested on: cardiac ventricular myocytes cultured from chick embryos; assay: Hypoxia-induced myocyte injury, agent present during prolonged (90 min) hypoxia with glucose deprivation; conditions: for effect of antagonist on A1 agonist (CCPA, CHA, ADAC)-induced cardioprotection: antagonist with A1 agonist during prolonged hypoxia; for effect of antagonist on A3 agonist (IB-MECA, Cl-IB-MECA)-induced cardioprotection: antagonist with A3 agonist during prolonged hypoxia; for cardioprotective effect when present during prolonged hypoxia (CK released, % myocytes killed): agonist present during prolonged hypoxia/simulated ischemia; for creatine kinase released during prolonged simulated ischemia: increasing concentrations, presence and absence of DPCPX (FIGS. 3A-3D)
Method: Ventricular cells were cultured from chick embryos 14 days in ovo as previously described (16, 23). Cells were cultivated in a humidified 5% CO2-95% air mixture at 37° C. […] The medium was changed to a HEPES-buffered medium containing (mM) 139 NaCl, 4.7 KCl, 0.5 MgCl2, 0.9 CaCl2, 5 HEPES (N-2-hydroxyethylpiperazine-N′-2-ethanesulfonic acid) and 2% fetal bovine serum, pH 7.4, 37° C. before exposing the myocytes to the various conditions at 37° C. Control myocytes were maintained in the HEPES-buffered media under room air. Ninety-minute exposure of the myocytes to hypoxia with glucose deprivation was used to induce cell injury. Hypoxia was produced by placing the cells in a hypoxic incubator (NuAire) where O2 was replaced by N2 as previously described (16,23). Effects of adenosine receptor agonists and antagonists on the extent of myocyte injury were determined by exposure of the prepared cells to these agents during the prolonged hypoxia.
(§1) Determination of myocyte injury was made at the end of the ninety-minute hypoxia, at which time myocytes were taken out of the hypoxic incubator and re-exposed to room air (normal % O2). Aliquots of the media were then obtained for creatine kinase (CK) activity measurement, which is followed by quantitation of the number of viable cells. Measurement of basal level of cell injury was made after parallel incubation of control cells under normal % O2. The extent of hypoxia-induced injury to the ventricular cell was quantitatively determined by the percentages of cells killed and by the amount of CK released into the media according to a previously described method (16, 23). […] In brief, the media were replaced with a trypsin-EDTA buffer to detach the cells, which was then followed by sedimentation of the viable myocytes. Parallel changes in % cells killed and CK released (16, 23) further validated this assay for % cells killed. The amount of CK was measured as enzyme activity (unit/mg), and increases in CK activity above the control level were determined. The percentage of cells killed was calculated as the number of cells obtained from the control group (representing cells not subjected to any hypoxia or drug treatment) minus the number of cells from the treatment group divided by number of cells in control group multiplied by 100%.

[2] = tested on: isolated cardiac myocytes; assay: Apoptotic cell death by DNA laddering on 1.5% agarose gel; conditions: for apoptotic cell death caused by prolonged exposure to the agent: no ischemia, agents that increase intracellular calcium
Method: Such smearing is indicative of a culmination of the apoptotic cell death pathway. Isolated cardiac myocytes were exposed to 90-min ischemia and 30-min reoxygenation (lanes 4 and 5). […] Lanes 1 and 2 represent myocytes not exposed to ischemia or any agent. Data were representative of three experiments.
Isolated cardiac myocytes were exposed to prolonged moderate simulated ischemia (17 hours with 2-3% O2). Lane 3 represents myocytes not exposed to ischemia or any agent. Lane 5 represents myocytes exposed to 17 hours of ischemia. […] Data were representative of three experiments.
Lane 3 represents myocytes not exposed to any agent. Lane 5 represents cardiac myocytes exposed (for three hours) to an agent (a P2X receptor agonist, 2-methylthioATP) known to increase intracellular calcium concentration. Prolonged exposure to 2-methylthioATP or UTP caused increased apoptosis (Lane 7). […] Data were representative of two experiments.
The effects of agents which target the adenosine receptor on apoptosis were initially examined in isolated cardiac myocytes exposed to ischemia (for 90 minutes and 30 minutes of reoxygenation) or agents which increase intracellular calcium levels. Increasing the level of intracellular calcium concentration induces non-ischemia-related apoptosis in vitro. Apoptotic cell death of cardiac myocytes was assessed by determining the extent of smearing or “DNA laddering” on 1.5% agarose gels.

[3] = tested on: ventricular myocytes cultured from chick embryos; assay: Pharmacological preconditioning: 5 min exposure to agent, then 90 min simulated ischemia; conditions: for effect of PLD inhibition on protective effect of MRS1760: ethanol (0.5%) or propranolol (100 μM) with 10 nM MRS1760; for preconditioning / cardioprotective effect: agent alone, 5 min exposure before 90 min ischemia
Method: FIG. 14 is a graph showing that the partial A1 receptor agonist, 8-butylaminoCPA, mimics the cardioprotective effect of ischemic preconditioning. Ventricular myocytes were cultured from chick embryos 14 days in ovo. The ability of the partial A1 agonist, 8-butylaminoCPA (8-butylamino-N^6-cyclopentyladenosine), to induce preconditioning was determined. In brief, myocytes were exposed to 8-butylaminoCPA at the indicated concentrations for 5 min, incubated for 10 min with agonist-free medium, and then exposed to simulated ischemia for 90 min. The extent of myocyte injury was quantitated at the end of the 90 min period by determinating the percentage of cells killed and the amount of creatine kinase (CK) released (units per milligram of cell protein). Data are means±SE of values from five independent experiments.
as §1
Media were then replaced with fresh media, which was then followed by exposure to 90-minute simulated ischemia and the data graphed.

[4] = biological target: T1, human adenosine A3 receptor (Homo sapiens, UniProt P0DMS8); assay: Preconditioning in chick atrial myocytes transfected with the human A3 receptor; conditions: hA3R-transfected vs vector-transfected atrial myocytes
T1 construct: full length cDNA encoding human adenosine A3 receptor subcloned in pcDNA3; expressed in transfected cells; host or cells: chick embryo atrial myocytes, transient calcium phosphate transfection with pcDNA3/hA3R
T1 sequence (P0DMS8 1-318): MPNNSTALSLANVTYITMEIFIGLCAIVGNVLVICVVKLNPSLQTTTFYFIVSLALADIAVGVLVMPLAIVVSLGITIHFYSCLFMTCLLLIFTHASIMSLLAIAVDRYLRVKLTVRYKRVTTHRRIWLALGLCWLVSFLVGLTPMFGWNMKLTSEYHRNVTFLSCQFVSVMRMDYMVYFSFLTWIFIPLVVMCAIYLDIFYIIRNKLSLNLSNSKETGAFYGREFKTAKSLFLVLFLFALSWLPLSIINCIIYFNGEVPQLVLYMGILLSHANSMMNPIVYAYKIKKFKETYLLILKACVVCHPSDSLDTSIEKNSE
Method: Transfection of chick atrial myocytes with the human A3 receptor—Atrial cells were cultured from chick embryos 14 days in ovo and transiently transfected with pcDNA3 (empty vector) or with pcDNA3/hA3R (full length cDNA encoding human adenosine A3 receptor subcloned in pcDNA3) using the calcium phosphate precipitation method. Forty-eight hours after transfection, the cells were exposed to the compounds of the invention and the percentage of myocytes killed during simulated ischemia was determined.
The transfected myocytes were then exposed to the compound for 5 minutes, which was followed by replacement with fresh media and myocytes exposed to normal conditions (non-ischemic) for 10 minutes prior to being exposed to ninety minutes of ischemia. The decrease in the number of myocytes killed in A3 receptor cDNA-transfected myocytes as compared to vector-transfected myocytes was plotted as a function of the concentration of the compound. This decrease in myocytes killed represented an index of the protection mediated via the human adenosine A3 receptor.

[5] = in the presence of adenosine and 8-SPT (100 μM) during hypoxia
[6] = 8-SPT alone present during the hypoxia

CCOC(=O)C1=C(C)NC(c2ccccc2)=C(C(=O)OCC)C1/C=C/c1ccccc1 (centres unmarked) [MRS 1097, 3,5-Diethyl 2-methyl-6-phenyl-4-[2-phenyl-(E)-vinyl]-1,4-(1)-dihydropyridine-3,5-dicarboxylate]
effect of antagonist on A1 agonist (CCPA, CHA, ADAC)-induced cardioprotection [1]: neither MRS 1191 nor MRS 1097 was able to block the CCPA-induced cardioprotection
effect of antagonist on A3 agonist (IB-MECA, Cl-IB-MECA)-induced cardioprotection [1]: able to block the cardioprotective effect of Cl-IB-MECA

CCOC(=O)C1=C(C)NC(c2ccccc2)=C(C(=O)OCc2ccccc2)C1C#Cc1ccccc1 (centres unmarked) [MRS 1191, 3-ethyl-5-benzyl-2-methyl-6-phenyl-4-phenylethynyl-1,4-(1)-dihydropyridine-3,5-dicarboxylate]
effect of antagonist on A1 agonist (CCPA, CHA, ADAC)-induced cardioprotection [1]: neither MRS 1191 nor MRS 1097 was able to block the CCPA-induced cardioprotection
effect of antagonist on A3 agonist (IB-MECA, Cl-IB-MECA)-induced cardioprotection [1]: blocked the Cl-IB-MECA-induced cardioprotection
apoptotic cell death (DNA laddering) ([2]; 90 min ischemia and 30 min reoxygenation, 10 nM Cl-IB-MECA, 1 μM MRS1191): but not the A3 antagonist (MRS1191) reduced apoptotic cell death

CC(C)NCC(O)COc1cccc2ccccc12 (centres unmarked) [Propranolol]
effect of PLD inhibition on protective effect of MRS1760 [3]: also abolished the protective effect of MRS1760

OC[C@H]1O[C@@H](n2cnc3c(NC4CCCCC4)ncnc32)[C@H](O)[C@@H]1O [CHA, N^6-cyclohexyladenosine]
cardioprotective effect when present during prolonged hypoxia (CK released, % myocytes killed) [1]: able to protect the myocytes when present during the prolonged hypoxia

CSc1nc(N)c2ncn([C@@H]3O[C@H](COP(=O)(O)OP(=O)(O)OP(=O)(O)O)[C@@H](O)[C@H]3O)c2n1 [2-methylthioATP]
apoptotic cell death caused by prolonged exposure to the agent [2]: caused an increase in apoptotic cell death

Cn1c(=O)c2c(nc(C=Cc3cccc(Cl)c3)n2C)n(C)c1=O [CSC, 8-(3-chlorostyryl)caffeine]
apoptosis (DNA laddering) ([2]; prolonged moderate ischemia, 17 hours with 2-3% O2): reduced apoptosis induced by the prolonged moderate ischemia

O=c1ccn([C@@H]2O[C@H](COP(=O)(O)OP(=O)(O)OP(=O)(O)O)[C@@H](O)[C@H]2O)c(=O)[nH]1 [UTP]
apoptotic cell death caused by prolonged exposure to the agent [2]: caused an increase in apoptotic cell death

CNC(=O)[C@H]1O[C@@H](n2cnc3c(NCc4cccc(I)c4)ncnc32)[C@H](O)[C@@H]1O [IB-MECA, N6-(3-iodobenzyl)adenosine-5′-N-methyluronamide]
cardioprotective effect when present during prolonged hypoxia (CK released, % myocytes killed) [1]: capable of protecting the cardiac myocytes against hypoxia-induced injury

Nc1ncnc2c1ncn2[C@@H]1O[C@H](CO)[C@@H](O)[C@H]1O [Adenosine]
CK released ([1]; adenosine 10 μM added during ninety-minute hypoxia, hypoxia alone 28.5±1.5): 14.9±3 unit/mg
% cells killed ([1]; adenosine 10 μM added during ninety-minute hypoxia, hypoxia alone 30±2): 12±2%
% cells killed [1, 5]: 28±3%
CK released [1, 5]: 31±5 unit/mg

CNC(=O)C1OC(n2cnc3c(NCc4cccc(S(=O)(=O)O)c4)ncnc32)C(O)C1O (centres unmarked) [MRS 1340]
creatine kinase released during prolonged simulated ischemia [1]: cardioprotective effects

COc1ccc2c(c1)CC[C@@H]1[C@@H]2CC[C@]2(C)[C@@H](NCCCCCCN3C(=O)C=CC3=O)CC[C@@H]12 [U-73122]
effect of PLC inhibitor on protective response to 8-butylaminoCPA ([3]; U-73122 (10 μM) with 1 μM 8-butylaminoCPA): able to block the protective response to 8-butylaminoCPA

CNC(=O)C1OC(n2cnc3c(NCc4cccc(I)c4)nc(NC)nc32)C(O)C1O (centres unmarked) [MRS 537]
creatine kinase released during prolonged simulated ischemia [1]: cardioprotective effects
preconditioning / protection mediated via human adenosine A3 receptor [4]: can exert the cardioprotective effect of preconditioning via the human adenosine A3 receptor

CCCn1c(=O)c2[nH]c(C3CCCC3)nc2n(CCC)c1=O [DPCPX, 8-cyclopentyl-1,3-dipropylxanthine]
effect of antagonist on A1 agonist (CCPA, CHA, ADAC)-induced cardioprotection [1]: blocked by the A1 antagonist DPCPX
effect of antagonist on A3 agonist (IB-MECA, Cl-IB-MECA)-induced cardioprotection [1]: had no effect on the ability of IB-MECA or Cl-IB-MECA to mediate their cardioprotective effects

CNC(=O)C1OC(n2cnc3c(NCc4cccc(C#CCNC(=O)Cc5ccc(NC(=O)Cc6ccc(Nc7ncnc8c7ncn8C7OC(CO)C(O)C7O)cc6)cc5)c4)ncnc32)C(O)C1O (centres unmarked) [MRS 1543]
protective effect in combined presence of DPCPX and MRS1191 ([3]; DPCPX (1 μM) plus MRS1191 (1 μM)): completely abolished the protective effect of MRS1543
preconditioning / cardioprotective effect [3]: can pharmacologically precondition the cardiac myocyte and induce a potent cardioprotective effect
protective effect in presence of DPCPX ([3]; excess DPCPX (1 μM)): only partially blocked by A1 antagonist DPCPX
protective effect in presence of MRS1191 ([3]; excess MRS1191 (1 μM)): only partially attenuated by the A3 antagonist MRS1191
preconditioning / protection mediated via human adenosine A3 receptor [4]: can precondition and induces a cardioprotective effect via the human adenosine A3 receptor

OC[C@@]12C[C@@H]1[C@@H](n1cnc3c(NCc4cccc(I)c4)ncnc31)[C@H](O)[C@@H]2O [MRS1743]
preconditioning / cardioprotective effect [3]: exerting a potent preconditioning-like effect

Cn1c(=O)c2[nH]c(-c3ccc(S(=O)(=O)O)cc3)nc2n(C)c1=O [8-SPT, 8-sulfophenyl-theophylline]
% cells killed [1, 6]: 31.6±1.5%
CK released [1, 6]: 29.6±1.2 unit/mg

CNC(=O)C1CC(O)C(n2cnc3c(NCc4cccc(I)c4)nc(Cl)nc32)O1 (centres unmarked) [MRS 584]
creatine kinase released during prolonged simulated ischemia [1]: cardioprotective effects
preconditioning / protection mediated via human adenosine A3 receptor [4]: can exert the cardioprotective effect of preconditioning via the human adenosine A3 receptor

CCO [ethanol]
effect of PLD inhibition on protective effect of MRS1760 [3]: abolished the protective effect of MRS1760
